In patent US20150322051A1, “Macrocyclic picolinamides as fungicides” (Dow AgroSciences LLC, priority 2014, published 2015):
Read-outs that look alike come from different tables or passages of the source.

What was measured:
[1] = tested on: Puccinia triticina; synonym: Puccinia recondita f. sp. tritici (PUCCRT); experiment: Wheat brown rust (PUCCRT) whole-plant fungicidal test; format: in vivo; conditions: topical; for pest or weed control at 100 ppm: high volume application; for pest or weed control at 121.5 g/ha: low volume (track spray) application, 121.5 g/H
[2] = tested on: Mycosphaerella graminicola; anamorph: Septoria tritici (SEPTTR); experiment: Leaf blotch of wheat (SEPTTR) whole-plant fungicidal test; format: in vivo; conditions: Zymoseptoria tritici, topical; for pest or weed control at 100 ppm: high volume application; for pest or weed control at 121.5 g/ha: low volume (track spray) application, 121.5 g/H
[3] = 24 h, 1 Day Protectant, read-out: High Volume activity at 100 ppm PUCCRT 1DP (% disease control rating)
[4] = 72 h, 3 Day Curative, read-out: High Volume activity at 100 ppm PUCCRT 3DC (% disease control rating)
[5] = 24 h, 1 Day Protectant, read-out: High Volume activity at 100 ppm SEPTTR 1DP (% disease control rating)
[6] = 72 h, 3 Day Curative, read-out: High Volume activity at 100 ppm SEPTTR 3DC (% disease control rating)
[7] = 24 h, 1 Day Protectant, read-out: Low Volume activity at 121.5 g/H PUCCRT 1DP (% disease control rating)
[8] = 72 h, 3 Day Curative, read-out: Low Volume activity at 121.5 g/H PUCCRT 3DC (% disease control rating)
[9] = 24 h, 1 Day Protectant, read-out: Low Volume activity at 121.5 g/H SEPTTR 1DP (% disease control rating)
[10] = 72 h, 3 Day Curative, read-out: Low Volume activity at 121.5 g/H SEPTTR 3DC (% disease control rating)

COc1ccnc(C(=O)N[C@H]2CCC[C@H](Cc3ccccc3)[C@@H](CCc3ccccc3)[C@H](C)OC2=O)c1O [Compound 78]
pest or weed control at 100 ppm [1, 3]: > 70%
pest or weed control at 100 ppm [1, 4]: < 70%
pest or weed control at 100 ppm [2, 5]: > 70%
pest or weed control at 100 ppm [2, 6]: > 70%

COc1ccnc(C(=O)N[C@H]2CCC[C@H](CCC(C)C)[C@@H](C3CCCC3)[C@H](C)OC2=O)c1OCOC(C)=O [Compound 42]
pest or weed control at 121.5 g/ha [1, 7]: > 70%
pest or weed control at 121.5 g/ha [1, 8]: < 70%
pest or weed control at 121.5 g/ha [2, 9]: > 70%
pest or weed control at 121.5 g/ha [2, 10]: > 70%

CCOCC(=O)OCOc1c(OC)ccnc1C(=O)N[C@H]1CCC[C@H](Cc2ccc(Cl)cc2)[C@@H](C2CCCC2)[C@H](C)OC1=O [Compound 31]
pest or weed control at 121.5 g/ha [1, 7]: > 70%
pest or weed control at 121.5 g/ha [1, 8]: < 70%
pest or weed control at 121.5 g/ha [2, 9]: > 70%
pest or weed control at 121.5 g/ha [2, 10]: > 70%

CCC[C@H]1CCC[C@H](NC(=O)c2nccc(OC)c2OCOC(C)=O)C(=O)O[C@@H](C)[C@@H]1Cc1ccc(F)cc1 [Compound 48]
pest or weed control at 121.5 g/ha [1, 7]: > 70%
pest or weed control at 121.5 g/ha [1, 8]: > 70%
pest or weed control at 121.5 g/ha [2, 9]: > 70%
pest or weed control at 121.5 g/ha [2, 10]: > 70%

COc1ccnc(C(=O)N[C@H]2CCC[C@H](Cc3ccc(Cl)cc3)[C@@H](Cc3ccccc3)[C@H](C)OC2=O)c1O [Compound 79]
pest or weed control at 100 ppm [1, 3]: > 70%
pest or weed control at 100 ppm [1, 4]: < 70%
pest or weed control at 100 ppm [2, 5]: > 70%
pest or weed control at 100 ppm [2, 6]: < 70%

COc1ccnc(C(=O)N[C@H]2CCC[C@H](Cc3ccccc3)[C@@H](Cc3ccc(F)cc3)[C@H](C)OC2=O)c1OCOC(=O)C(C)C [Compound 64]
pest or weed control at 121.5 g/ha [1, 7]: > 70%
pest or weed control at 121.5 g/ha [1, 8]: < 70%
pest or weed control at 121.5 g/ha [2, 9]: > 70%
pest or weed control at 121.5 g/ha [2, 10]: > 70%

COc1ccnc(C(=O)N[C@H]2CCC[C@H](Cc3ccccc3)[C@@H](c3ccccc3)[C@H](C)OC2=O)c1O [Compound 90]
pest or weed control at 100 ppm [1, 3]: > 70%
pest or weed control at 100 ppm [1, 4]: > 70%
pest or weed control at 100 ppm [2, 5]: > 70%
pest or weed control at 100 ppm [2, 6]: > 70%

CCC[C@H]1CCC[C@H](NC(=O)c2nccc(OC)c2OCOC(C)=O)C(=O)O[C@@H](C)[C@@H]1c1ccccc1 [Compound 54]
pest or weed control at 121.5 g/ha [1, 7]: > 70%
pest or weed control at 121.5 g/ha [1, 8]: > 70%
pest or weed control at 121.5 g/ha [2, 9]: > 70%
pest or weed control at 121.5 g/ha [2, 10]: > 70%

CCC[C@H]1CCC[C@H](NC(=O)c2nccc(OC)c2OC(C)=O)C(=O)O[C@@H](C)[C@@H]1c1ccccc1 [Compound 55]
pest or weed control at 121.5 g/ha [1, 7]: > 70%
pest or weed control at 121.5 g/ha [1, 8]: > 70%
pest or weed control at 121.5 g/ha [2, 9]: > 70%
pest or weed control at 121.5 g/ha [2, 10]: > 70%

COc1ccnc(C(=O)N[C@H]2CCC[C@H](Cc3ccc(C(F)(F)F)cc3)[C@@H](Cc3ccccc3)[C@H](C)OC2=O)c1OC(C)=O [Compound 25]
pest or weed control at 121.5 g/ha [1, 7]: < 70%
pest or weed control at 121.5 g/ha [1, 8]: < 70%
pest or weed control at 121.5 g/ha [2, 9]: < 70%
pest or weed control at 121.5 g/ha [2, 10]: < 70%

COc1ccnc(C(=O)N[C@H]2CCC[C@H](Cc3ccccc3)[C@@H](CCC(C)C)[C@H](C)OC2=O)c1OCOC(=O)C(C)C [Compound 50]
pest or weed control at 121.5 g/ha [1, 7]: > 70%
pest or weed control at 121.5 g/ha [1, 8]: < 70%
pest or weed control at 121.5 g/ha [2, 9]: > 70%
pest or weed control at 121.5 g/ha [2, 10]: > 70%

COc1ccnc(C(=O)N[C@H]2CCC[C@H](Cc3ccc(C(F)(F)F)cc3)[C@@H](Cc3ccc(F)cc3)[C@H](C)OC2=O)c1O [Compound 86]
pest or weed control at 100 ppm [1, 3]: > 70%
pest or weed control at 100 ppm [1, 4]: < 70%
pest or weed control at 100 ppm [2, 5]: < 70%
pest or weed control at 100 ppm [2, 6]: < 70%

COc1ccnc(C(=O)N[C@H]2CCC[C@H](CCC(C)C)[C@@H](CCc3ccccc3)[C@H](C)OC2=O)c1O [Compound 83]
pest or weed control at 100 ppm [1, 3]: > 70%
pest or weed control at 100 ppm [1, 4]: < 70%
pest or weed control at 100 ppm [2, 5]: > 70%
pest or weed control at 100 ppm [2, 6]: < 70%

COc1ccnc(C(=O)N[C@H]2CCC[C@H](CCCc3ccccc3)[C@@H](CCc3ccccc3)[C@H](C)OC2=O)c1OCOC(C)=O [Compound 32]
pest or weed control at 121.5 g/ha [1, 7]: > 70%
pest or weed control at 121.5 g/ha [1, 8]: < 70%
pest or weed control at 121.5 g/ha [2, 9]: > 70%
pest or weed control at 121.5 g/ha [2, 10]: < 70%
